#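 The concentration for 50% growth inhibition is given as GI50. At the TGI there is no net growth.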
# Experiments:
# Assay in all cases: NCI-60 cell line screen, 384-well format
# 786-0 renal = system: 786-0 renal
# A498 renal = system: A498 renal
# A549 NSCLC = system: A549 NSCLC
# ACHN renal = system: ACHN renal
# BT-549 breast = system: BT-549 breast
# CAKI-1 renal = system: CAKI-1 renal
# DU-145 prostate = system: DU-145 prostate
# EKVX NSCLC = system: EKVX NSCLC
# HCC-2998 colon = system: HCC-2998 colon
# HCT-116 colon = system: HCT-116 colon
# HCT-15 colon = system: HCT-15 colon
# HL-60(TB) leukemia = system: HL-60(TB) leukemia
# HOP-62 NSCLC = system: HOP-62 NSCLC
# HOP-92 NSCLC = system: HOP-92 NSCLC
# HS 578T breast = system: HS 578T breast
# HT29 colon = system: HT29 colon
# IGROV1 ovarian = system: IGROV1 ovarian
# K-562 leukemia = system: K-562 leukemia
# KM12 colon = system: KM12 colon
# LOX IMVI melanoma = system: LOX IMVI melanoma
# M14 melanoma = system: M14 melanoma
# MALME-3M melanoma = system: MALME-3M melanoma
# MCF7 breast = system: MCF7 breast
# MDA-MB-231 breast = system: MDA-MB-231 breast
# MDA-MB-435 melanoma = system: MDA-MB-435 melanoma
# MDA-MB-468 breast = system: MDA-MB-468 breast
# MOLT-4 leukemia = system: MOLT-4 leukemia
# NCI-H226 lung = system: NCI-H226 lung
# NCI-H23 lung = system: NCI-H23 lung
# NCI-H322M lung = system: NCI-H322M lung
# NCI-H460 NSCLC = system: NCI-H460 NSCLC
# NCI-H522 lung = system: NCI-H522 lung
# NCI/ADR-RES ovarian = system: NCI/ADR-RES ovarian
# OVCAR-3 ovarian = system: OVCAR-3 ovarian
# OVCAR-4 ovarian = system: OVCAR-4 ovarian
# OVCAR-5 ovarian = system: OVCAR-5 ovarian
# OVCAR-8 ovarian = system: OVCAR-8 ovarian
# PC-3 prostate = system: PC-3 prostate
# RPMI-8226 leukemia = system: RPMI-8226 leukemia
# RXF 393 renal = system: RXF 393 renal
# SF-268 CNS = system: SF-268 CNS
# SF-295 CNS = system: SF-295 CNS
# SF-539 CNS = system: SF-539 CNS
# SK-MEL-28 melanoma = system: SK-MEL-28 melanoma
# SK-MEL-5 melanoma = system: SK-MEL-5 melanoma
# SK-OV-3 ovarian = system: SK-OV-3 ovarian
# SN12C renal = system: SN12C renal
# SNB-19 CNS = system: SNB-19 CNS
# SNB-75 CNS = system: SNB-75 CNS
# SW-620 colon = system: SW-620 colon
# T-47D breast = system: T-47D breast
# TK-10 renal = system: TK-10 renal
# U251 glioblastoma = system: U251 glioblastoma
# UACC-257 melanoma = system: UACC-257 melanoma
# UACC-62 melanoma = system: UACC-62 melanoma
# UO-31 renal = system: UO-31 renal
structure (smiles),measurement,setting,value
O=C(Nc1cccc(Cl)c1)Nc1ncc(CCNc2ncnc3ccsc23)s1,GI50,786-0 renal,1.97 µM
same,TGI,786-0 renal,11.4 µM
same,GI50,A498 renal,0.839 µM
same,TGI,A498 renal,18.5 µM
same,GI50,A549 NSCLC,0.121 µM
same,TGI,A549 NSCLC,15.4 µM
same,GI50,ACHN renal,1.52 µM
same,TGI,ACHN renal,17.3 µM
same,GI50,BT-549 breast,1.07 µM
same,TGI,BT-549 breast,11.4 µM
same,GI50,CAKI-1 renal,1.15 µM
same,TGI,CAKI-1 renal,14.1 µM
same,GI50,DU-145 prostate,4.52 µM
same,TGI,DU-145 prostate,18.1 µM
same,GI50,EKVX NSCLC,1.68 µM
same,TGI,EKVX NSCLC,16.1 µM
same,GI50,HCC-2998 colon,10.3 µM
same,TGI,HCC-2998 colon,22 µM
same,GI50,HCT-116 colon,0.754 µM
same,TGI,HCT-116 colon,14.5 µM
same,GI50,HCT-15 colon,1.47 µM
same,TGI,HCT-15 colon,15.6 µM
same,GI50,HL-60(TB) leukemia,< 0.01 µM
same,TGI,HL-60(TB) leukemia,3.63 µM
same,GI50,HOP-62 NSCLC,0.356 µM
same,TGI,HOP-62 NSCLC,11 µM
same,GI50,HOP-92 NSCLC,3.53 µM
same,TGI,HOP-92 NSCLC,18.4 µM
same,GI50,HS 578T breast,0.104 µM
same,TGI,HS 578T breast,6.01 µM
same,GI50,HT29 colon,2.42 µM
same,TGI,HT29 colon,14.5 µM
same,GI50,IGROV1 ovarian,3.39 µM
same,TGI,IGROV1 ovarian,16 µM
same,GI50,K-562 leukemia,1.34 µM
same,TGI,K-562 leukemia,14.1 µM
same,GI50,KM12 colon,0.118 µM
same,TGI,KM12 colon,13.2 µM
same,GI50,LOX IMVI melanoma,1.25 µM
same,TGI,LOX IMVI melanoma,13.8 µM
same,GI50,M14 melanoma,1.79 µM
same,TGI,M14 melanoma,14.8 µM
same,GI50,MALME-3M melanoma,6.41 µM
same,TGI,MALME-3M melanoma,19.5 µM
same,GI50,MCF7 breast,1.49 µM
same,TGI,MCF7 breast,13 µM
same,GI50,MDA-MB-231 breast,8.07 µM
same,TGI,MDA-MB-231 breast,20.8 µM
same,GI50,MDA-MB-435 melanoma,10 µM
same,TGI,MDA-MB-435 melanoma,21.6 µM
same,GI50,MDA-MB-468 breast,0.0283 µM
same,TGI,MDA-MB-468 breast,0.242 µM
same,GI50,MOLT-4 leukemia,< 0.01 µM
same,GI50,NCI-H226 lung,2.94 µM
same,TGI,NCI-H226 lung,16.3 µM
same,GI50,NCI-H23 lung,2.59 µM
same,TGI,NCI-H23 lung,16 µM
same,GI50,NCI-H322M lung,6.64 µM
same,TGI,NCI-H322M lung,19.6 µM
same,GI50,NCI-H460 NSCLC,0.0433 µM
same,TGI,NCI-H460 NSCLC,10.6 µM
same,GI50,NCI-H522 lung,0.356 µM
same,TGI,NCI-H522 lung,12.1 µM
same,GI50,NCI/ADR-RES ovarian,2.44 µM
same,TGI,NCI/ADR-RES ovarian,11 µM
same,GI50,OVCAR-3 ovarian,0.174 µM
same,TGI,OVCAR-3 ovarian,15 µM
same,GI50,OVCAR-4 ovarian,9.02 µM
same,TGI,OVCAR-4 ovarian,21.3 µM
same,GI50,OVCAR-5 ovarian,8.83 µM
same,TGI,OVCAR-5 ovarian,21.2 µM
same,GI50,OVCAR-8 ovarian,2.2 µM
same,TGI,OVCAR-8 ovarian,12 µM
same,GI50,PC-3 prostate,3.15 µM
same,TGI,PC-3 prostate,13.2 µM
same,GI50,RPMI-8226 leukemia,0.308 µM
same,TGI,RPMI-8226 leukemia,11.5 µM
same,GI50,RXF 393 renal,0.0169 µM
same,TGI,RXF 393 renal,2.55 µM
same,GI50,SF-268 CNS,< 0.01 µM
same,TGI,SF-268 CNS,0.781 µM
same,GI50,SF-295 CNS,2.17 µM
same,TGI,SF-295 CNS,18.1 µM
same,GI50,SF-539 CNS,0.306 µM
same,TGI,SF-539 CNS,14.7 µM
same,GI50,SK-MEL-28 melanoma,10.4 µM
same,TGI,SK-MEL-28 melanoma,22.2 µM
same,GI50,SK-MEL-5 melanoma,1.08 µM
same,TGI,SK-MEL-5 melanoma,2.53 µM
same,GI50,SK-OV-3 ovarian,5.02 µM
same,TGI,SK-OV-3 ovarian,19 µM
same,GI50,SN12C renal,3.01 µM
same,TGI,SN12C renal,18.2 µM
same,GI50,SNB-19 CNS,11.7 µM
same,TGI,SNB-19 CNS,24 µM
same,GI50,SNB-75 CNS,4.06 µM
same,TGI,SNB-75 CNS,17 µM
same,GI50,SW-620 colon,14.6 µM
same,TGI,SW-620 colon,27.8 µM
same,GI50,T-47D breast,0.228 µM
same,TGI,T-47D breast,2.36 µM
same,GI50,TK-10 renal,9.81 µM
same,TGI,TK-10 renal,21.6 µM
same,GI50,U251 glioblastoma,7.52 µM
same,TGI,U251 glioblastoma,20.7 µM
same,GI50,UACC-257 melanoma,4.81 µM
same,TGI,UACC-257 melanoma,18.3 µM
same,GI50,UACC-62 melanoma,1 µM
same,TGI,UACC-62 melanoma,16 µM
same,GI50,UO-31 renal,3.5 µM
same,TGI,UO-31 renal,19.7 µM

# Reference: PubChem BioAssay (NCI)
